Experimental data: US20120053211A1, “TREATMENT OF PANCREATIC CANCER” (ARDEA BIOSCIENCES, INC., priority 2009, published 2012)
Values joined by “and” are separate entries in the source; they are usually repeats but may differ in a detail not shown here. Identical values can stand only once.

System: Bx-PC3-e242 Xenograft
Assay: Bx-PC3-e242 Xenograft Study
Type: in vivo, female (nu/nu) mice
Design: key to Mean BW Nadir: — indicates no decrease in mean body weight was observed
Conditions: for % TGI: D15, compared to Group 1; for % TGD: [(T − C)/C] × 100; for MTV (n) D54: day of TGD analysis, excludes animals reaching endpoint; for MTV (n) D15: day of TGI analysis, includes animals at endpoint; for T − C: difference of median TTE versus control group (Group 1); for Mean TTE / Median TTE: endpoint 1500 mm^3; for Individual TTE values: individual animals 1-9, endpoint 1500 mm^3, study duration 54 days; for Mean BW Nadir: lowest group mean body weight as % change from Day 1; for No. of NTR: non-treatment-related death; for No. of PR: partial regression, 9 animals
Protocol: In vivo activity of compound B: Bx-PC3-e242 Xenograft Study Bx-PC3-e242 cells were injected into 11-week-old female (nu/nu) mice. Tumors were allowed to reach 115.5-116.7 mm^3 (group mean tumor range); 63-196 mm^3 (Individual Tumor Range) in size (23 days) and mice were randomized into 6 groups of 9 animals (body weight range 18.0-25.2 g). Mice were treated by according to the chart below:
Tumors were measured with a caliper and tumor volumes calculated using the following formula:
where w=width and l=length in mm of a tumor. Tumor weight is estimated with the assumption that 1 mg is equivalent to 1 mm^3 of tumor volume.
Each animal was euthanized when the tumor reached endpoint size or at the end of the study, whichever comes first. The time to endpoint (TTE) for each mouse is calculated according to the following equation
The study endpoint was 1500 mm^3, with a study duration of 54 days.
Treatment may cause partial regression (PR) or complete regression (CR) of the tumor in an animal. In a PR response, the tumor volume is 50% or less of its Day 1 volume for three consecutive measurements during the course of the study.
Treatment outcome is evaluated by tumor growth delay (TGD), defined as the increase in the median time to endpoint (TTE) in a treatment group compared to the control group:
Response to treatment was also evaluated for tumor growth inhibition (TGI), defined as the difference between the median tumor volumes (MTVs) of treated and control mice.
Animals were weighed daily for the first five days of the study and then twice weekly. The mice are observed frequently for overt signs of any adverse, treatment-related side effects, and clinical signs of toxicity were recorded when observed.

[1] = Group 3: Cmpd B 25 mg/kg po qd × 14
[2] = Group 4: Cmpd B 6.25 mg/kg po bid × 14 first day 1 dose
[3] = Group 6: Cmpd B 12.5 mg/kg po, then 6.25 mg/kg po bid × 11 first day 1 dose (start on day 4)

Cc1c(Nc2ccc(I)cc2F)c(NS(=O)(=O)C2CC2)cn(C)c1=O [Compound B, N-(4-(2-fluoro-4-iodophenylamino)-1,5-dimethyl-6-oxo-1,6-dihydropyridin-3-yl)cyclopropanesulfonamide]
Weekly Median Tumor Volume (number of animals in parentheses) (D1, Group 3: Cmpd B 25 mg/kg po qd × 14): 108 (9) mm^3
Weekly Median Tumor Volume (number of animals in parentheses) (D1, Group 4: Cmpd B 6.25 mg/kg po bid × 14 first day 1 dose): 108 (9) mm^3
Weekly Median Tumor Volume (number of animals in parentheses) (D1, Group 5: Cmpd B 9 mg/kg po): 108 (9) mm^3
Weekly Median Tumor Volume (number of animals in parentheses) (D1, Group 6: Cmpd B 12.5 mg/kg po, then 6.25 mg/kg po bid × 11 first day 1 dose (start on day 4)): 75 (9) mm^3
Weekly Median Tumor Volume (number of animals in parentheses) (D5, Group 3: Cmpd B 25 mg/kg po qd × 14): 75 (9) mm^3
Weekly Median Tumor Volume (number of animals in parentheses) (D5, Group 4: Cmpd B 6.25 mg/kg po bid × 14 first day 1 dose): 75 (9) mm^3
Weekly Median Tumor Volume (number of animals in parentheses) (D5, Group 5: Cmpd B 9 mg/kg po): 63 (9) mm^3
Weekly Median Tumor Volume (number of animals in parentheses) (D5, Group 6: Cmpd B 12.5 mg/kg po, then 6.25 mg/kg po bid × 11 first day 1 dose (start on day 4)): 75 (9) mm^3
Weekly Median Tumor Volume (number of animals in parentheses) (D10, Group 3: Cmpd B 25 mg/kg po qd × 14): 196 (9) mm^3
Weekly Median Tumor Volume (number of animals in parentheses) (D10, Group 4: Cmpd B 6.25 mg/kg po bid × 14 first day 1 dose): 196 (9) mm^3
Weekly Median Tumor Volume (number of animals in parentheses) (D10, Group 5: Cmpd B 9 mg/kg po): 172 (9) mm^3
Weekly Median Tumor Volume (number of animals in parentheses) (D10, Group 6: Cmpd B 12.5 mg/kg po, then 6.25 mg/kg po bid × 11 first day 1 dose (start on day 4)): 259 (9) mm^3
% TGI [1]: 82%
% TGI [2]: 89%
% TGI (Group 5: Cmpd B 9 mg/kg po): 89%
% TGI [3]: 84%
Weekly Median Tumor Volume (number of animals in parentheses) (D15, Group 3: Cmpd B 25 mg/kg po qd × 14): 196 (9) mm^3
Weekly Median Tumor Volume (number of animals in parentheses) (D15, Group 4: Cmpd B 6.25 mg/kg po bid × 14 first day 1 dose): 126 (9) mm^3
Weekly Median Tumor Volume (number of animals in parentheses) (D15, Group 5: Cmpd B 9 mg/kg po): 126 (9) mm^3
Weekly Median Tumor Volume (number of animals in parentheses) (D15, Group 6: Cmpd B 12.5 mg/kg po, then 6.25 mg/kg po bid × 11 first day 1 dose (start on day 4)): 172 (9) mm^3
Weekly Median Tumor Volume (number of animals in parentheses) (D22, Group 3: Cmpd B 25 mg/kg po qd × 14): 446 (9) mm^3
Weekly Median Tumor Volume (number of animals in parentheses) (D22, Group 4: Cmpd B 6.25 mg/kg po bid × 14 first day 1 dose): 288 (9) mm^3
Weekly Median Tumor Volume (number of animals in parentheses) (D22, Group 5: Cmpd B 9 mg/kg po): 288 (9) mm^3
Weekly Median Tumor Volume (number of animals in parentheses) (D22, Group 6: Cmpd B 12.5 mg/kg po, then 6.25 mg/kg po bid × 11 first day 1 dose (start on day 4)): 550 (9) mm^3
Weekly Median Tumor Volume (number of animals in parentheses) (D29, Group 3: Cmpd B 25 mg/kg po qd × 14): 864 (5) mm^3
Weekly Median Tumor Volume (number of animals in parentheses) (D29, Group 4: Cmpd B 6.25 mg/kg po bid × 14 first day 1 dose): 509 (8) mm^3
Weekly Median Tumor Volume (number of animals in parentheses) (D29, Group 5: Cmpd B 9 mg/kg po): 566 (8) mm^3
Weekly Median Tumor Volume (number of animals in parentheses) (D29, Group 6: Cmpd B 12.5 mg/kg po, then 6.25 mg/kg po bid × 11 first day 1 dose (start on day 4)): 1008 (9) mm^3
Weekly Median Tumor Volume (number of animals in parentheses) (D36, Group 3: Cmpd B 25 mg/kg po qd × 14): 867 (4) mm^3
Weekly Median Tumor Volume (number of animals in parentheses) (D36, Group 4: Cmpd B 6.25 mg/kg po bid × 14 first day 1 dose): 600 (6) mm^3
Weekly Median Tumor Volume (number of animals in parentheses) (D36, Group 5: Cmpd B 9 mg/kg po): 600 (5) mm^3
Weekly Median Tumor Volume (number of animals in parentheses) (D36, Group 6: Cmpd B 12.5 mg/kg po, then 6.25 mg/kg po bid × 11 first day 1 dose (start on day 4)): 900 (2) mm^3
Weekly Median Tumor Volume (number of animals in parentheses) (D43, Group 3: Cmpd B 25 mg/kg po qd × 14): 1015 (2) mm^3
Weekly Median Tumor Volume (number of animals in parentheses) (D43, Group 4: Cmpd B 6.25 mg/kg po bid × 14 first day 1 dose): 1268 (3) mm^3
Weekly Median Tumor Volume (number of animals in parentheses) (D43, Group 5: Cmpd B 9 mg/kg po): 1008 (1) mm^3
Weekly Median Tumor Volume (number of animals in parentheses) (D43, Group 6: Cmpd B 12.5 mg/kg po, then 6.25 mg/kg po bid × 11 first day 1 dose (start on day 4)): 1470 (1) mm^3
Weekly Median Tumor Volume (number of animals in parentheses) (D50, Group 3: Cmpd B 25 mg/kg po qd × 14): 1327 (2) mm^3
Weekly Median Tumor Volume (number of animals in parentheses) (D50, Group 4: Cmpd B 6.25 mg/kg po bid × 14 first day 1 dose): 976 (2) mm^3
Weekly Median Tumor Volume (number of animals in parentheses) (D50, Group 5: Cmpd B 9 mg/kg po): 1470 (1) mm^3
% TGD [1]: 62%
% TGD [2]: 91%
% TGD (Group 5: Cmpd B 9 mg/kg po): 94%
% TGD [3]: 69%
MTV (n) D54 [1]: 1470 (1) mm^3
MTV (n) D54 [2]: 486 (1) mm^3
MTV (n) D15 [1]: 196 (9) mm^3
MTV (n) D15 [2]: 126 (9) mm^3
MTV (n) D15 (Group 5: Cmpd B 9 mg/kg po): 126 (9) mm^3
MTV (n) D15 [3]: 172 (9) mm^3
T − C [1]: 12.1 days
T − C [2]: 17.8 days
T − C (Group 5: Cmpd B 9 mg/kg po): 18.3 days
T − C [3]: 13.4 days
Mean TTE [1]: 35.4 days
Median TTE [1]: 31.6 days
Mean TTE [2]: 40.7 days
Median TTE [2]: 37.3 days
Mean TTE (Group 5: Cmpd B 9 mg/kg po): 37.8 days
Median TTE (Group 5: Cmpd B 9 mg/kg po): 37.8 days
Mean TTE [3]: 34.9 days
Median TTE [3]: 32.9 days
Individual TTE values (* = non-treatment-related death, Group 4: Cmpd B 6.25 mg/kg po bid × 14 first day 1 dose): 54.0 days and 51.4 days and 50.0 days and 35.1 days and 36.9 days and *40.0 days and 29.0 days and 37.7 days and 31.5 days
Individual TTE values [1]: 23.4 days and 28.3 days and 54.0 days and 50.1 days and 26.5 days and 31.6 days and 38.2 days and 40.2 days and 26.8 days
Individual TTE values (Group 5: Cmpd B 9 mg/kg po): 31.8 days and 42.8 days (2×) and 33.8 days and 41.7 days and 50.3 days and 30.5 days and 28.2 days and 37.8 days
Individual TTE values [3]: 32.9 days and 45.6 days and 35.7 days and 29.7 days and 33.3 days and 41.0 days and 31.1 days and 31.8 days and 32.8 days
Mean BW Nadir [1]: —
Mean BW Nadir [2]: —
Mean BW Nadir (Group 5: Cmpd B 9 mg/kg po): —
Mean BW Nadir [3]: —
Mean TV(n) (n = 1, Group 5: Cmpd B 9 mg/kg po): 1913 mm^3
Mean TV(n) (n = 2, Group 3: Cmpd B 25 mg/kg po qd × 14): 1635 mm^3
Mean TV(n) (n = 2, Group 4: Cmpd B 6.25 mg/kg po bid × 14 first day 1 dose): 1076 mm^3
No. of NTR [1]: 0
No. of NTR [2]: 1
No. of NTR (Group 5: Cmpd B 9 mg/kg po): 0
No. of NTR [3]: 0
No. of PR [1]: 0
No. of PR [2]: 0
No. of PR (Group 5: Cmpd B 9 mg/kg po): 0
No. of PR [3]: 0
